{
  "source": "ChEMBL document CHEMBL3120101",
  "about": "“Synthesis, biological evaluation, hydration site thermodynamics, and chemical reactivity analysis of α-keto substituted peptidomimetics for the inhibition of Plasmodium falciparum” (Bioorg Med Chem Lett, 2014)",
  "key": {"[1]": {"biological_target": "T1, Cysteine protease falcipain-3 (Plasmodium falciparum, UniProt Q9NAW4)", "T1 sequence (Q9NAW4 whole entry)": "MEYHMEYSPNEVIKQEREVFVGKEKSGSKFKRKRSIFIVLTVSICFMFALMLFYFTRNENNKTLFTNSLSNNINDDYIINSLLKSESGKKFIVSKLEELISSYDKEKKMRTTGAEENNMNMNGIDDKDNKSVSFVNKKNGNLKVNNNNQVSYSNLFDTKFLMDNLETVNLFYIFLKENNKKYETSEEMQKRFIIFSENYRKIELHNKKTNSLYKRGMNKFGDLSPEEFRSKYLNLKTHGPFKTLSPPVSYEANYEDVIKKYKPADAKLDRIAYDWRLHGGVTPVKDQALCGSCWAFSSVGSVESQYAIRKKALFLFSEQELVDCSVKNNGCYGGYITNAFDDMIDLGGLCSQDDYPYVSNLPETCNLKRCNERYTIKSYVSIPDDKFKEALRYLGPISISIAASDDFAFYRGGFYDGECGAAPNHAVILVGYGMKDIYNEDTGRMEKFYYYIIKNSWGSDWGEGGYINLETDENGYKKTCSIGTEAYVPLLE", "assay": "Inhibition of Plasmodium falciparum cysteine protease falcipain-3"}, "Falcipain 2": {"biological_target": "T2, Falcipain 2 (Plasmodium falciparum, UniProt Q9N6S8)", "T2 sequence (Q9N6S8 whole entry)": "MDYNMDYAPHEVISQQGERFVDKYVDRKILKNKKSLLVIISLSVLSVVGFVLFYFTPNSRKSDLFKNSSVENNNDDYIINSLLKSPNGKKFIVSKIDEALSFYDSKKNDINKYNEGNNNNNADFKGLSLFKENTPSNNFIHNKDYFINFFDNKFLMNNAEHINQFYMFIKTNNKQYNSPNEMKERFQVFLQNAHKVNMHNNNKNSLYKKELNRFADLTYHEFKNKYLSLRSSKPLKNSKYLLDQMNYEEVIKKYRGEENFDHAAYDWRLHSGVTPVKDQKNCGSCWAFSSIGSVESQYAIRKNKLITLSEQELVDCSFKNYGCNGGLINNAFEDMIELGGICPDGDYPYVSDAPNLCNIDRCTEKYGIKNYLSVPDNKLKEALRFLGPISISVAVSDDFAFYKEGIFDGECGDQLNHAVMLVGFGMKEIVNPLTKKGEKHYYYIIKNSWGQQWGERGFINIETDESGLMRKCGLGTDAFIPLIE", "assay": "Inhibition of Plasmodium falciparum cysteine protease falcipain-2"}, "Plasmodium falciparum": {"system": "Plasmodium falciparum", "assay": "Antimicrobial activity against chloroquine-resistant Plasmodium falciparum W2 assessed as growth inhibition", "assay_type": "functional, organism-based"}},
  "data": [
    {"smiles": "CC(=O)OCC(=O)[C@H](CCc1ccccc1)NC(=O)[C@@H]1Cc2ccccc2CN1C(=O)OCc1ccccc1", "values": [
      {"measurement": "IC50", "setting": "[1]", "value": "> 50", "unit": "µM"},
      {"measurement": "IC50", "setting": "Falcipain 2", "value": "> 50", "unit": "µM"},
      {"measurement": "IC50", "setting": "Plasmodium falciparum", "value": "> 50", "unit": "µM"}
    ]},
    {"smiles": "O=C1CCC(NC(=O)OCc2ccccc2)(C(=O)N[C@@H](CCc2ccccc2)C(=O)CO)CC1", "values": [
      {"measurement": "IC50", "setting": "[1]", "value": 47.2, "unit": "µM"},
      {"measurement": "IC50", "setting": "Falcipain 2", "value": "> 50", "unit": "µM"},
      {"measurement": "IC50", "setting": "Plasmodium falciparum", "value": 23.3, "unit": "µM"}
    ]},
    {"smiles": "O=C(N[C@@H](CCc1ccccc1)C(=O)N[C@@H](CCc1ccccc1)C(=O)CO)OCc1ccccc1", "values": [
      {"measurement": "IC50", "setting": "[1]", "value": 11.9, "unit": "µM"},
      {"measurement": "IC50", "setting": "Falcipain 2", "value": 30.1, "unit": "µM"},
      {"measurement": "IC50", "setting": "Plasmodium falciparum", "value": 37.2, "unit": "µM"}
    ]},
    {"smiles": "O=C(CSCCCc1ccccc1)[C@H](CCc1ccccc1)NC(=O)[C@@H]1C[C@@H](O)CN1C(=O)OCc1ccccc1", "values": [
      {"measurement": "IC50", "setting": "[1]", "value": 0.52, "unit": "µM"},
      {"measurement": "IC50", "setting": "Falcipain 2", "value": 1.1, "unit": "µM"},
      {"measurement": "IC50", "setting": "Plasmodium falciparum", "value": 19.6, "unit": "µM"}
    ]},
    {"smiles": "O=C(N[C@H]1CCC[C@H]1C(=O)N[C@@H](CCc1ccccc1)C(=O)CO)OCc1ccccc1", "values": [
      {"measurement": "IC50", "setting": "[1]", "value": 23.9, "unit": "µM"},
      {"measurement": "IC50", "setting": "Falcipain 2", "value": "> 50", "unit": "µM"},
      {"measurement": "IC50", "setting": "Plasmodium falciparum", "value": "> 50", "unit": "µM"}
    ]},
    {"smiles": "O=C(CN1CCOCC1)[C@H](CCc1ccccc1)NC(=O)[C@@H]1C[C@@H](O)CN1C(=O)OCc1ccccc1", "values": [
      {"measurement": "IC50", "setting": "[1]", "value": "> 50", "unit": "µM"},
      {"measurement": "IC50", "setting": "Falcipain 2", "value": "> 50", "unit": "µM"},
      {"measurement": "IC50", "setting": "Plasmodium falciparum", "value": 10.2, "unit": "µM"}
    ]},
    {"smiles": "O=C(CO)[C@H](CCc1ccccc1)NC(=O)[C@@H]1CCCN1C(=O)OCc1ccccc1", "values": [
      {"measurement": "IC50", "setting": "[1]", "value": "> 50", "unit": "µM"},
      {"measurement": "IC50", "setting": "Falcipain 2", "value": "> 50", "unit": "µM"},
      {"measurement": "IC50", "setting": "Plasmodium falciparum", "value": "> 50", "unit": "µM"}
    ]},
    {"smiles": "O=C(CO)[C@H](CCc1ccccc1)NC(=O)[C@@H]1C[C@@H](O)CN1C(=O)OCc1ccccc1", "values": [
      {"measurement": "IC50", "setting": "[1]", "value": 0.06, "unit": "µM"},
      {"measurement": "IC50", "setting": "Falcipain 2", "value": 0.08, "unit": "µM"},
      {"measurement": "IC50", "setting": "Plasmodium falciparum", "value": 7.7, "unit": "µM"}
    ]},
    {"smiles": "O=C(CO)[C@H](CCc1ccccc1)NC(=O)[C@@H]1Cc2ccccc2CN1C(=O)OCc1ccccc1", "values": [
      {"measurement": "IC50", "setting": "[1]", "value": "> 50", "unit": "µM"},
      {"measurement": "IC50", "setting": "Falcipain 2", "value": "> 50", "unit": "µM"},
      {"measurement": "IC50", "setting": "Plasmodium falciparum", "value": "> 50", "unit": "µM"}
    ]},
    {"smiles": "O=C(CSCCCc1ccccc1)[C@H](CCc1ccccc1)NC(=O)[C@@H]1CCCN1C(=O)OCc1ccccc1", "values": [
      {"measurement": "IC50", "setting": "[1]", "value": "> 50", "unit": "µM"},
      {"measurement": "IC50", "setting": "Falcipain 2", "value": 48.1, "unit": "µM"},
      {"measurement": "IC50", "setting": "Plasmodium falciparum", "value": 13.8, "unit": "µM"}
    ]},
    {"smiles": "CC1(C)OC[C@@H](C(=O)N[C@@H](CCc2ccccc2)C(=O)CO)N1C(=O)OCc1ccccc1", "values": [
      {"measurement": "IC50", "setting": "[1]", "value": "> 50", "unit": "µM"},
      {"measurement": "IC50", "setting": "Falcipain 2", "value": "> 50", "unit": "µM"},
      {"measurement": "IC50", "setting": "Plasmodium falciparum", "value": "> 50", "unit": "µM"}
    ]},
    {"smiles": "CC(=O)OCC(=O)[C@H](CCc1ccccc1)NC(=O)C1C2C=CC(C2)C1NC(=O)OCc1ccccc1", "note": "(stereo partly specified)", "values": [
      {"measurement": "IC50", "setting": "[1]", "value": "> 50", "unit": "µM"},
      {"measurement": "IC50", "setting": "Falcipain 2", "value": "> 50", "unit": "µM"},
      {"measurement": "IC50", "setting": "Plasmodium falciparum", "value": "> 50", "unit": "µM"}
    ]},
    {"smiles": "CC(=O)OCC(=O)[C@H](CCc1ccccc1)NC(=O)[C@H](CCc1ccccc1)NC(=O)OCc1ccccc1", "values": [
      {"measurement": "IC50", "setting": "[1]", "value": "> 50", "unit": "µM"},
      {"measurement": "IC50", "setting": "Falcipain 2", "value": 29.7, "unit": "µM"},
      {"measurement": "IC50", "setting": "Plasmodium falciparum", "value": "> 50", "unit": "µM"}
    ]},
    {"smiles": "O=C(N[C@H]1CC=CC[C@H]1C(=O)N[C@@H](CCc1ccccc1)C(=O)CO)OCc1ccccc1", "values": [
      {"measurement": "IC50", "setting": "[1]", "value": 20.2, "unit": "µM"},
      {"measurement": "IC50", "setting": "Falcipain 2", "value": "> 50", "unit": "µM"},
      {"measurement": "IC50", "setting": "Plasmodium falciparum", "value": "> 50", "unit": "µM"}
    ]},
    {"smiles": "CC(=O)OCC(=O)[C@H](CCc1ccccc1)NC(=O)[C@@H]1COC(C)(C)N1C(=O)OCc1ccccc1", "values": [
      {"measurement": "IC50", "setting": "[1]", "value": "> 50", "unit": "µM"},
      {"measurement": "IC50", "setting": "Falcipain 2", "value": "> 50", "unit": "µM"},
      {"measurement": "IC50", "setting": "Plasmodium falciparum", "value": "> 50", "unit": "µM"}
    ]},
    {"smiles": "O=C(N[C@@H]1CCCC[C@@H]1C(=O)N[C@@H](CCc1ccccc1)C(=O)CO)OCc1ccccc1", "values": [
      {"measurement": "IC50", "setting": "[1]", "value": 0.91, "unit": "µM"},
      {"measurement": "IC50", "setting": "Falcipain 2", "value": 4.42, "unit": "µM"},
      {"measurement": "IC50", "setting": "Plasmodium falciparum", "value": 47.6, "unit": "µM"}
    ]},
    {"smiles": "O=C(NC1(C(=O)N[C@@H](CCc2ccccc2)C(=O)CO)CCSCC1)OCc1ccccc1", "values": [
      {"measurement": "IC50", "setting": "[1]", "value": 8.22, "unit": "µM"},
      {"measurement": "IC50", "setting": "Falcipain 2", "value": 3.25, "unit": "µM"},
      {"measurement": "IC50", "setting": "Plasmodium falciparum", "value": 28.2, "unit": "µM"}
    ]},
    {"smiles": "O=C(N[C@H]1CCCC[C@H]1C(=O)N[C@@H](CCc1ccccc1)C(=O)CO)OCc1ccccc1", "values": [
      {"measurement": "IC50", "setting": "[1]", "value": 0.54, "unit": "µM"},
      {"measurement": "IC50", "setting": "Falcipain 2", "value": 5.52, "unit": "µM"},
      {"measurement": "IC50", "setting": "Plasmodium falciparum", "value": "> 50", "unit": "µM"}
    ]},
    {"smiles": "CC(=O)OCC(=O)[C@H](CCc1ccccc1)NC(=O)C1(NC(=O)OCc2ccccc2)CCSCC1", "values": [
      {"measurement": "IC50", "setting": "[1]", "value": "> 50", "unit": "µM"},
      {"measurement": "IC50", "setting": "Falcipain 2", "value": 33.9, "unit": "µM"},
      {"measurement": "IC50", "setting": "Plasmodium falciparum", "value": "> 50", "unit": "µM"}
    ]},
    {"smiles": "O=C(NC1C2C=CC(C2)C1C(=O)N[C@@H](CCc1ccccc1)C(=O)CO)OCc1ccccc1", "note": "(stereo partly specified)", "values": [
      {"measurement": "IC50", "setting": "[1]", "value": 25.4, "unit": "µM"},
      {"measurement": "IC50", "setting": "Falcipain 2", "value": 33.6, "unit": "µM"},
      {"measurement": "IC50", "setting": "Plasmodium falciparum", "value": 47.2, "unit": "µM"}
    ]},
    {"smiles": "CC(=O)SCC(=O)[C@H](CCc1ccccc1)NC(=O)[C@@H]1C[C@@H](O)CN1C(=O)OCc1ccccc1", "values": [
      {"measurement": "IC50", "setting": "[1]", "value": 3.56, "unit": "µM"},
      {"measurement": "IC50", "setting": "Falcipain 2", "value": "> 50", "unit": "µM"},
      {"measurement": "IC50", "setting": "Plasmodium falciparum", "value": 18.6, "unit": "µM"}
    ]},
    {"smiles": "CC(=O)SCC(=O)[C@H](CCc1ccccc1)NC(=O)[C@@H]1CCCN1C(=O)OCc1ccccc1", "values": [
      {"measurement": "IC50", "setting": "[1]", "value": 36.4, "unit": "µM"},
      {"measurement": "IC50", "setting": "Falcipain 2", "value": "> 50", "unit": "µM"},
      {"measurement": "IC50", "setting": "Plasmodium falciparum", "value": 18.1, "unit": "µM"}
    ]}
  ]
}
